Entries after “also recorded” stand apart in the source; their conditions may differ.
Key:
[1] = tested on: diet induced obese (DIO) mice; experiment: In vivo pair-feeding study with a NPY5 antagonist; parameters: species or system Male C57BL/6J mice
Description: Compound A, is an orally active, selective NPY5 antagonist (Kanatani et al., 2000, Biochem. Biophys. Research Comm. 272:169-173). Male C57BL/6J mice (CLEA Japan Inc., 16 months old at the beginning of the drug administration) were used. Mice were given water and regular pellet chow (CE-2, CLEA Japan Inc.) ad libitum. They were kept in an animal room which was maintained at 23±2° C. temperature, 55±15% relative humidity and on a 12-hr light-dark cycle (7:00-19:00) during a quarantine and acclimatization period of 1 week.
Before the start of drug administration, mice were fed a MB diet (Oriental BioService Co., Tokyo, Japan) for about 9 to 10 months until the body weight gain reached plateau. After the body weight gain reached a plateau, the diet was change to a powder MHF diet. The powder MEW diet was given by powder feeder (small dishes). Diet and dishes were changed everyday, and daily food intake was measured. During this period, animals were orally administered vehicle (0.5% methylcellulose in distilled water) by gavage once-daily. After stable feeding was observed, the amount of new food was adjusted to daily food intake+0.3 g, to minimize the amount of spilled food. After the acclimation period, the MB diet-fed mice were divided into three groups to match average values of body weight (initial average body weight was 48 to 49 g). Each group was orally administered either vehicle or compound A at a dose of 100 mg/kg once-daily for 1 month, or vehicle by gavage. Food and body weight were measured. The administration was done one and half hours before the beginning of the dark period following the body weight measurement. Four days after drug administration, the pair-feeding was started. The pair-fed amount of food was calculated from the following equations: Average F.I. inhibition of drug treated group (%)=(average F.I. from control group−average F.I. from drug treated group)/average F.I. from control group×100 Pair fed amount of food for each animal=each animal's average F.I. from pre period×(1−average F.I. inhibition of drug treated group (%)) Pair fed mice were given a diet calculated from above inhibition and pre-average F.I. value. The amount of food was divided to two meals and given around at 8:00 and 18:00 to avoid a long duration of fasting. Rectal temperature was measured at 13:00-14:00 by insertion of thermo-probe in the rectum, at the 14, 22, 29, 34th day (10, 18, 25, 30th day for pair-fed group) after the start of treatment. Results

[2] = tested on: diet induced obese (DIO) mice; experiment: In vivo study of a combination of a NPY5 antagonist and food restriction; parameters: species or system Male C57BL/6J mice
Description: Male C57BL/6J mice (CLEA Japan Inc., 14 months old at the beginning of the drug administration) were used. Mice were given water and a regular pellet chow (CE-2, CLEA Japan Inc.) ad libitum. They were kept in an animal room which was maintained at 23±2° C. temperature, 55±15% relative humidity and on a 12-hr light-dark cycle (7:00-19:00) during a quarantine and acclimatization period of 1 week. Before the start of drug administration, mice were fed a MHF diet (Oriental BioService Co., Tokyo, Japan) for about 9 to 10 months until the body weight gain reached a plateau. After the body weight gain reached a plateau, the diet was changed to a powder MHF diet. The powder MHF diet was given by powder feeder (small dishes). Diet and dishes were changed everyday, and the daily food intake was measured. During this period, animals were orally administered vehicle (0.5% methylcellulose in distilled water) by gavage twice-daily. After stable feeding was observed, the amount of new food was adjusted to daily food intake+0.3 g, to minimize the amount of spilled food. After the acclimation period, the […] mice were divided into four groups to match the average values of body weight (initial average body weight was 49 to 51 g) and food intake (n=7-10). Two of the groups were orally administered either vehicle or compound B at a dose of 30 mg/kg twice-daily for 1.5 months by gavage, respectively. Another two groups were treated with vehicle or compound B and given 90% of the average baseline food intake of the each mouse during the acclimation period (10% food restriction). The administration was done one and half hours before the beginning of the dark period following body weight measurement and one and half hours after the beginning of the light period. The amount of food was divided into two meals and given around at 8:00 and 18:00 to avoid a long duration of fasting. Food and body weight were measured.

| SMILES | food consumed, less than untreated controls ([1]; DIO mice chronically treated) | body weight ([1]; DIO mice, 100 mg/kg once-daily P.O., 30 day treatment) | food intake ([1]; DIO mice, 100 mg/kg once-daily P.O., throughout the treatment period) | rectal temperature ([1]; DIO mice, 100 mg/kg once-daily P.O., compared with control and pair-fed group, 100 mg/kg) | inhibition at 100 mg/kg ([1]; Mus musculus, po, DIO mice, 100 mg/kg once-daily P.O., 1 month, read-out: Inhibitory percentage of cumulative food intake) [%] | body weight, combination with 10% food restriction ([2]; 30 mg/kg twice-daily P.O. plus 10% food restriction, compared with either treatment alone, 30 mg/kg) | food intake ([2]; 30 mg/kg twice-daily P.O., throughout the treatment period) | inhibition at 30 mg/kg ([2]; Mus musculus, po, 30 mg/kg twice-daily P.O., 1.5 months, read-out: Inhibitory percentage of cumulative food intake) [%] | body weight ([2]; non food restricted, 30 mg/kg twice-daily P.O., 49 day treatment) |
| --- | --- | --- | --- | --- | --- | --- | --- | --- | --- |
| CC1(C)CC(=O)C(C2C3=C(CC(C)(C)CC3=O)Oc3ccccc32)C(=O)C1 (stereo not drawn) [Compound A] | about 10% | significantly reduced body weight | mildly reduced food intake | almost the same as that in the control group; also recorded: drop in body temperature was prevented | 12.5 | – | – | – | – |
| O=C1OC2(CCN(C(=O)Nc3cnc(-c4ccccc4)cn3)CC2)c2ccccc21 [Compound B, 3-oxo-N-(5-phenyl-2-pyrazinyl)-spiro[isobenzofuran-1(3H),4′-piperidine]-1′-carboxamide] | – | – | – | – | – | decreased weight than either treatment alone; also recorded: lose more weight than food restriction alone | mildly reduced food intake | 6 | significantly reduced body weight |

Source: patent US20050288213A1, “Combination therapy for the treatment of obesity” (priority 2002, published 2005)
